Results from ChEMBL document CHEMBL1133828, “Synthesis, crystal structure determination, and biological properties of the DNA-dependent protein kinase (DNA-PK) inhibitor 3-cyano-6-hydrazonomethyl-5-(4-pyridyl)pyrid-[1H]-2-one (OK-1035)” (Bioorg Med Chem Lett, 2001).

Target: DNA-dependent protein kinase catalytic subunit (Homo sapiens, UniProt P78527)
Assay: Inhibition of DNA-dependent protein kinase (DNA-PK) of HeLa cell nuclear cell extract
Type: cell-free

DNA-dependent protein kinase catalytic subunit, sequence (P78527 whole entry): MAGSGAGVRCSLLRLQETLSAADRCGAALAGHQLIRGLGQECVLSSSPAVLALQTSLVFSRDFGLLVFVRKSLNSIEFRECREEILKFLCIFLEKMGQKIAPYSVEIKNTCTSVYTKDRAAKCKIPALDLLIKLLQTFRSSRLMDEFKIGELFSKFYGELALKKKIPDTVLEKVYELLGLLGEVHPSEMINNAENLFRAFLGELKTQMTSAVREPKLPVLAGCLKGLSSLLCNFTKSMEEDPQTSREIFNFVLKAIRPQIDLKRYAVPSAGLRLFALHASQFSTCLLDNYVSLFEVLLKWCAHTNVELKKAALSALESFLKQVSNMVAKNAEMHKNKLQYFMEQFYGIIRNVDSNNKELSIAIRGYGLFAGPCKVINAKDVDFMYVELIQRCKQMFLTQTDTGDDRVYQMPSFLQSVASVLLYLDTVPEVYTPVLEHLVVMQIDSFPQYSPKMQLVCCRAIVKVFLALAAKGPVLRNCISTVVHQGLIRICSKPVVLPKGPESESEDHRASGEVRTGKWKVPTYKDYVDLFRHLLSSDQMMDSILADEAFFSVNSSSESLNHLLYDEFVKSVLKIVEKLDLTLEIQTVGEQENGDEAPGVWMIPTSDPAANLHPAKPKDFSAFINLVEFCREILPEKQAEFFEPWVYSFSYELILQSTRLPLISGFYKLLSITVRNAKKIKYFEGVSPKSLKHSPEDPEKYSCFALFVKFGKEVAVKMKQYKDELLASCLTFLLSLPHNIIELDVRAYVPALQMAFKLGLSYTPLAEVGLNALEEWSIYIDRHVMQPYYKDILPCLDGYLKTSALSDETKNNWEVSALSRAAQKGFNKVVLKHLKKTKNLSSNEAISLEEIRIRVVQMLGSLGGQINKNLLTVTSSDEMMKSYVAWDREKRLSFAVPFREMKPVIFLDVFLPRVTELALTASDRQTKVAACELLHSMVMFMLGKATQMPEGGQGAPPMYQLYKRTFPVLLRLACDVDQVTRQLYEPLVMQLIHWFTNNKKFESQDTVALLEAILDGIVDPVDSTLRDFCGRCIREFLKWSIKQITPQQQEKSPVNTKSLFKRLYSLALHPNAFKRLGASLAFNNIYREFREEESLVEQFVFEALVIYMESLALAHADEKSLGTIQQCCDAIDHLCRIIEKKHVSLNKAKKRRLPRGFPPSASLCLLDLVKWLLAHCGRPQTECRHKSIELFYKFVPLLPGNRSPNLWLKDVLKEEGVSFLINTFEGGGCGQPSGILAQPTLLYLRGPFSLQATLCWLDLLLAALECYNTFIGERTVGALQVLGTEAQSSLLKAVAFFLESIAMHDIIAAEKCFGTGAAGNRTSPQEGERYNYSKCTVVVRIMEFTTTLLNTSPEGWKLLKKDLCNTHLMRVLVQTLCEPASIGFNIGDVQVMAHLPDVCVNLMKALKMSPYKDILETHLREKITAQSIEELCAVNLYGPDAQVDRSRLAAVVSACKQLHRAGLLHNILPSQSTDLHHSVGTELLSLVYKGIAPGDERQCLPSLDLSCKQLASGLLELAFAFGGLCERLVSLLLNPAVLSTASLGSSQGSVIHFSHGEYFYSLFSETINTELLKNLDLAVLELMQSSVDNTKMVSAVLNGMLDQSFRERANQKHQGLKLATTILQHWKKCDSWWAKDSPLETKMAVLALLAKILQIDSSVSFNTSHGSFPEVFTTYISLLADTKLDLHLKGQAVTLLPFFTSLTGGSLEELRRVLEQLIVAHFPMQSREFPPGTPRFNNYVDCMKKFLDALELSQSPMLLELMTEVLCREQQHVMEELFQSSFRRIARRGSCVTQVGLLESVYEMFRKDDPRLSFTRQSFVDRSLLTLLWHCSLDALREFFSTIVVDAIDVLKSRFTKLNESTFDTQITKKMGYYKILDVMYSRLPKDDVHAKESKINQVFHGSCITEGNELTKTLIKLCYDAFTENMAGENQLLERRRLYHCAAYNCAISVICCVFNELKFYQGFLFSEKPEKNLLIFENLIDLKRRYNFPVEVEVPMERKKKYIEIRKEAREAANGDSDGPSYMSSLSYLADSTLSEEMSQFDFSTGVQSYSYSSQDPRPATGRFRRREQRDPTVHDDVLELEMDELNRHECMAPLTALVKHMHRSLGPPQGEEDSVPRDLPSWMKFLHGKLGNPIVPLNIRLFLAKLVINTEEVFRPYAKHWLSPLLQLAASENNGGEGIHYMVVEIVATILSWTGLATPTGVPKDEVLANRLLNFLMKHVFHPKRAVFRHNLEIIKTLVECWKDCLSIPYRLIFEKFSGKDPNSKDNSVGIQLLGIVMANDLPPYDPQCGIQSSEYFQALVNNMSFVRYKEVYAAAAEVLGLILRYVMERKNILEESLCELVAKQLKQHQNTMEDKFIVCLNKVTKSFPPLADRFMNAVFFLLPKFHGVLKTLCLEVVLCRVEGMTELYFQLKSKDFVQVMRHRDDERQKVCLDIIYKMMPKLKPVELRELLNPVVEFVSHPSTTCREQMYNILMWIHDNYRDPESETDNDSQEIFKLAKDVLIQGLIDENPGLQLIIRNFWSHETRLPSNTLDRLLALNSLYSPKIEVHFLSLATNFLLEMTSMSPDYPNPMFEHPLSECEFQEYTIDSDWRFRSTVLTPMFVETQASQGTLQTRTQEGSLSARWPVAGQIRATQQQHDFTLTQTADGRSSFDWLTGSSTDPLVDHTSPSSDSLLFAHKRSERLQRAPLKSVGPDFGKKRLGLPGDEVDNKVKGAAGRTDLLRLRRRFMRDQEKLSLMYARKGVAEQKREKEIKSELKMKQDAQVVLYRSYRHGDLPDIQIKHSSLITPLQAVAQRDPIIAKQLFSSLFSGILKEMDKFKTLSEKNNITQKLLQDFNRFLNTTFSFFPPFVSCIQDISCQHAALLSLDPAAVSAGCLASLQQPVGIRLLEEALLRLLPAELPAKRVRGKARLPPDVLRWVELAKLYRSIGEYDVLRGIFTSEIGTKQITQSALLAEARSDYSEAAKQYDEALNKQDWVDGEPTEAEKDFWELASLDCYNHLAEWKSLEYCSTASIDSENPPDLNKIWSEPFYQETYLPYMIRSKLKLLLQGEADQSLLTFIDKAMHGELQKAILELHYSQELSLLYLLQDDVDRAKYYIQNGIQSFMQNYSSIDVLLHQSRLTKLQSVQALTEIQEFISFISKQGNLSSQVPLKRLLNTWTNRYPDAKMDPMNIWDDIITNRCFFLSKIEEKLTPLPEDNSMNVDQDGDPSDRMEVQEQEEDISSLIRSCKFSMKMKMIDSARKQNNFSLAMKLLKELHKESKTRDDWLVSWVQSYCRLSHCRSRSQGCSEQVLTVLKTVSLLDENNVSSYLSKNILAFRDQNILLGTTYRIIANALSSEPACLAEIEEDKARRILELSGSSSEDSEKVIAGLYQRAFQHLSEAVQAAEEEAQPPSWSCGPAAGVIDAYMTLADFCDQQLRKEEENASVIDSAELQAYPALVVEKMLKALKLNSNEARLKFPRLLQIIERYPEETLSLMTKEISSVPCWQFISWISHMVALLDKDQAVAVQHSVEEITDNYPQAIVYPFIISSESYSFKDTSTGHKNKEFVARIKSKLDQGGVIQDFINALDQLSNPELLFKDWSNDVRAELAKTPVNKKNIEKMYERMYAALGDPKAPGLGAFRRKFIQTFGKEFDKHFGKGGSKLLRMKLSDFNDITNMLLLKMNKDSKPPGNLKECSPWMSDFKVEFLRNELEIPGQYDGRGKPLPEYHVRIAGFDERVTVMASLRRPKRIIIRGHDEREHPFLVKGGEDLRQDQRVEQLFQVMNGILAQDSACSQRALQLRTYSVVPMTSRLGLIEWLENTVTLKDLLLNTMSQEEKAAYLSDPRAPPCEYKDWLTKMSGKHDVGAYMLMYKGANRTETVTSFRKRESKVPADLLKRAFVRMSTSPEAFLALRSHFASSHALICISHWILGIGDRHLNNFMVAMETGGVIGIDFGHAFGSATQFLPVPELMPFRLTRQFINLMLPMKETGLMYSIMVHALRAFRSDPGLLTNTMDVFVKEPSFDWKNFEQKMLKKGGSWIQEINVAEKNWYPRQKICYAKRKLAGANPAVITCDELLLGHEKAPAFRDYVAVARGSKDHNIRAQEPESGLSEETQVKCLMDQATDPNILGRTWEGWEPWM

SMILES	IC50
N#Cc1cc(-c2ccncc2)c(/C=N/N)nc1O	100 µM
N#Cc1cc(-c2ccncc2)c(CO)nc1O	> 500 µM
COc1ccc(COCc2nc(O)c(C#N)cc2-c2ccncc2)cc1	> 500 µM
O=c1cc(N2CCOCC2)oc2c(-c3ccccc3)cccc12 [LY-294002]	1.4 µM
